“Also recorded” adds a separate entry of the source.
What was measured:
[1] = system: 'mutant atbg1'; assay: Stomatal size of 'mutant atbg1' at night after ABA treatment; assay type: in vivo, Arabidopsis thaliana; conditions: 10 μM and 50 μM ABA at 23 o'clock, measured at 24 o'clock, n=200
Procedure: (§1) Particularly, the transgenic plant was cultured at 20° C. with 70% relative humidity under 16/8 hour-light/dark cycle and the stomatal sizes were measured at noon and midnight (n=150) (FIG. 13).
(§2) To investigate the effect of exogenous ABA on stomatal closure, the ‘mutant atbg1’ plant was treated with 10 μM and 50 μM of ABA at 23 o'clock and stomatal sizes were measured at 24 o'clock (FIG. 14). Control group was treated with 100 μM of NAME (L-nitroargininemethylester), known as […], during the time of stomatal disclosure, that is for 10 hours from 4 o'clock, and stomatal sizes were measured at midnight.

[2] = system: 'mutant atbg1'; assay: Leaf colour of 'mutant atbg1' after exogenous ABA; assay type: in vivo, Arabidopsis thaliana; conditions: exogenous ABA applied to one week cultivated 'mutant atbg1', 3 more days of culture
Excerpt: Exogenous ABA was applied to one week cultivated ‘mutant atbg1’, followed by culture for 3 more days.

[3] = system: wild type; assay: Stomatal size of wild type at midnight after NAME treatment; assay type: in vivo, Arabidopsis thaliana; conditions: 100 μM NAME for 10 hours from 4 o'clock, measured at midnight
Procedure: as §1, §2

[4] = system: AtBG1:HA; assay: AtBG1 glycosylation in protoplasts, blotting with anti-HA antibody; assay type: cell-based, Arabidopsis thaliana; conditions: anti-HA blot
Excerpt: To confirm the above result that AtBG1 localizes to ER, the present inventors examined AtBG1 glycosylation. Glycosylation of protein produces glycan and this glycan moiety of the protein localizing to the ER is sensitive to both endo-H and PNGase F, meaning the glycan moiety is easily digested by endo-H and PNGase F enzyme activities (Kuznetsov G. et al., J. Biol. Chem. 268: 2001, 1993). Tunicamycin is an inhibitor of the glycosylation.
Protein extract obtained from protoplasts of AtBG1:HA transfected plant and treated with endo-H and PNGase F (not treated with tunicamycin), protein extract obtained from protoplasts of tunicamycin treated Arabidopsis thaliana transformed with AtBG1 and protein extract obtained from protoplasts of tunicamycin-non-treated Arabidopsis thaliana transformed with AtBG1 were examined by blotting using anti-HA antibody.

[5] = ABA-GE hydrolysis by immunopurified AtBG1 proteins, ABA fraction by HPLC and ELISA; assay type: biochemical, Arabidopsis thaliana; conditions: 100 mM citrate buffer pH 5.5, 37° C., one and half hours

CC1=CC(=O)CC(C)(C)[C@@]1(O)/C=C/C(C)=C\C(=O)O [ABA, abscisic acid]
stomatal closure in the night [1]: induced stomatal closure in the night
leaf colour phenotype [2]: yellow leaf turned into normal green

COC(=O)[C@@H](N)CCCNC(=N)N[N+](=O)[O-] [NAME, L-nitroargininemethylester]
stomatal closure [3]: defects in stomatal closure

Tunicamycin
size of AtBG1:HA versus tunicamycin-non-treated protoplasts [4]: smaller

B1: AtBG1:HA: HA (hemagglutinin) tagged wild type AtBG1, Arabidopsis thaliana β-glucosidase 1 (protein)
chain: QGPVCGAGLPDKFSRLNFPEGFIWGTATAAFQVEGAVNEGCRGPSMWDTFTKKFPHRCENHNADVAVDFYHRYKEDIQLMKDLNTDAFRLSIAWPRIFPHGRMSKGISKVGVQFYHDLIDELLKNNIIPLVTVFHWDTPQDLEDEYGGFLSGRIVQDFTEYANFTFHEYGHKVKHWITFNEPWVFSRAGYDNGKKAPGRCSPYIPGYGQHCQDGRSGYEAYQVSHNLLLSHAYAVDAFRNCKQCAGGKIGIAHSPAWFEPQDLEHVGGSIERVLDFILGWHLAPTTYGDYPQSMKDRVGHRLPKFTEAEKKLLKGSTDYVGMNYYTSVFAKEISPDPKSPSWTTDSLVDWDSKSVDGYKIGSKPFNGKLDVYSKGLRYLLKYIKDNYGDPEVIIAENGYGEDLGEKHNDVNFGTQDHNRKYYIQRHLLSMHDAICKDKVNVTGYFVWSLMDNFEWQDGYKARFGLYYIDFQNNLTRHQKVSGKWYSEFLKPQFPTSKLREEL
modifications: left off: small tags and cut ends
ABA generated from ABA-GE (HPLC peak / ELISA detection) [5]: novel peaks at the position for ABA; also recorded: hydrolyzes ABA-GE to form ABA
ABA generated from ABA-GE (HPLC peak / ELISA detection) ([5]; listed as wild type AtBG1 protein): high level of ABA

B2: AtBG1[E207Q]:HA: HA tagged AtBG1 with substitution mutation at position 207, an active site of β-glycosidase (protein, UniProt Q9SE50 27-528, looked up, variant E207Q)
Beta-D-glucopyranosyl …: QGPVCGAGLPDKFSRLNFPEGFIWGTATAAFQVEGAVNEGCRGPSMWDTFTKKFPHRCENHNADVAVDFYHRYKEDIQLMKDLNTDAFRLSIAWPRIFPHGRMSKGISKVGVQFYHDLIDELLKNNIIPLVTVFHWDTPQDLEDEYGGFLSGRIVQDFTEYANFTFHEYGHKVKHWITFNQPWVFSRAGYDNGKKAPGRCSPYIPGYGQHCQDGRSGYEAYQVSHNLLLSHAYAVDAFRNCKQCAGGKIGIAHSPAWFEPQDLEHVGGSIERVLDFILGWHLAPTTYGDYPQSMKDRVGHRLPKFTEAEKKLLKGSTDYVGMNYYTSVFAKEISPDPKSPSWTTDSLVDWDSKSVDGYKIGSKPFNGKLDVYSKGLRYLLKYIKDNYGDPEVIIAENGYGEDLGEKHNDVNFGTQDHNRKYYIQRHLLSMHDAICKDKVNVTGYFVWSLMDNFEWQDGYKARFGLYYIDFQNNLTRHQKVSGKWYSEFLKPQFPTSKLREEL
modifications: HA tag
ABA generated from ABA-GE (HPLC peak / ELISA detection) [5]: novel peaks at the position for ABA
amount of ABA released from ABA-GE, relative to that of the wild type ([5]; ABA peaks quantified by ELISA with anti-ABA antibody): 20%
